Data set [1] is described as follows: Inhibition of human recombinant SOS2 catalytic domain/human recombinant GST-KRAS G12C mutant expressed in Escherichia coli assessed as inhibition of interaction.
The nature of data set [2]: In vivo inhibition of ERK phosphorylation in human MIA PaCa-2 cells harbouring KRAS G12C mutant xenografted in athymic nude Foxn1 nu mouse assessed as phosphorylated ERK level at 10 mg/kg, po qd in presence of 50 mg/kg MRTX849 measured after 4 hrs relative to total ERK. The class given is functional. Background: Xenograft models place foreign cells or tissue in a host animal.

Data set [3] can be described thus: Inhibition of N-terminal his-tagged human recombinant SOS2/C-terminal Avi-biotinylated-tagged human recombinant KRAS expressed in Escherichia coli assessed as inhibition of GDP exchange rate by TR-FRET assay. (TR-FRET usually uses a lanthanide donor and a delayed reading to cut background.)
Data set [4] can be described thus: Free plasma concentration in CD-1 mouse at 100 mg/kg, po measured on 1 hr. The class given is ADME, organism-based. Particulars: in vivo.
Data set [5] in a line: In vivo inhibition of ERK phosphorylation in human MIA PaCa-2 cells harbouring KRAS G12C mutant xenografted in athymic nude Foxn1 nu mouse assessed as phosphorylated ERK level at 10 mg/kg, po qd in presence of 25 mg/kg MRTX849 measured after 4 hrs relative to total ERK. The class given is functional.
The nature of data set [6]: In vivo inhibition of ERK phosphorylation in human MIA PaCa-2 cells harbouring KRAS G12C mutant xenografted in athymic nude Foxn1 nu mouse assessed as phosphorylated ERK level at 10 mg/kg, po qd measured after 4 hrs relative to total ERK. It counts as functional.

The record followed here is ChEMBL document CHEMBL5143739, “Design and Discovery of MRTX0902, a Potent, Selective, Brain-Penetrant, and Orally Bioavailable Inhibitor of the SOS1:KRAS Protein-Protein Interaction” (J Med Chem, 2022).

`CNCc1ccccc1-c1csc([C@@H](C)Nc2nc(C)nc3cc(OC)c(OC)cc23)c1` [BAY-293]: in data set [1], the IC50 was 21 nM.

As to `Cc1c(C#N)cccc1[C@@H](C)Nc1nnc(C)c2cnc(N3CCOCC3)cc12` [MRTX-0902], the inhibition in vivo at 10 mg/kg in data set [2] came out at 81%; in data set [5], 66%. Besides, in data set [3], the IC50 is > 10000 nM. In data set [4], the “Cp(f)” value amounted to 134 nM.

Regarding `C=C(F)C(=O)N1CCN(c2nc(OC[C@@H]3CCCN3C)nc3c2CCN(c2cccc4cccc(Cl)c24)C3)C[C@@H]1CC#N` [ADAGRASIB], in data set [6], the inhibition in vivo at 10 mg/kg worked out at 21%.

Broadly, the IC50 is the midpoint of a concentration-inhibition curve. As usually defined, the inhibition in vivo is how much of the control response was suppressed.
